Source: US20160158200A1, “Combinations of Hepatitis C Virus Inhibitors” (priority 2013, published 2016)

system: HCV genotype-1a variant with glutamine 30 changed to glutamate in the NS5A protein; format: cell-based; conditions: test compound titrated with BMS-790052 fixed at 200 nM; genotype 1a Q30E replicon
Summary of the method: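 Synergy was assessed by combining several fixed amounts of an NS5A-targeting compound with a titration of the second compound of interest.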

Row | Structure (SMILES) | Fold-Synergistic 1a (Q30E) [fold]
1 | CC(C)[C@H](NC(=O)c1cccc2c1OCC2)c1ncc(-c2ccc(-c3ccc(-c4cnc([C@@H](NC(=O)c5cccc6c5OCC6)C(C)C)[nH]4)cc3)cc2)[nH]1 [Compound S-55] | >100
2 | CC(C)[C@H](NC(=O)CC1CCCCCC1)c1ncc(-c2ccc(-c3ccc(-c4cnc([C@@H](NC(=O)CC5CCCCCC5)C(C)C)[nH]4)cc3)cc2)[nH]1 [Compound S-56] | >100
3 | CC(C)[C@H](NC(=O)CCCc1ccccc1)c1ncc(-c2ccc(-c3ccc(-c4cnc([C@@H](NC(=O)CCCc5ccccc5)C(C)C)[nH]4)cc3)cc2)[nH]1 [Compound S-57] | >100
4 | CC(C)[C@H](NC(=O)CCCn1ccnc1)c1ncc(-c2ccc(-c3ccc(-c4cnc([C@@H](NC(=O)CCCn5ccnc5)C(C)C)[nH]4)cc3)cc2)[nH]1 [Compound S-58] | <10
5 | CC(C)[C@H](NC(=O)CCN1CCCC1=O)c1ncc(-c2ccc(-c3ccc(-c4cnc([C@@H](NC(=O)CCN5CCCC5=O)C(C)C)[nH]4)cc3)cc2)[nH]1 [Compound S-59] | <10
6 | CC(C)[C@H](NC(=O)Cc1cnccn1)c1ncc(-c2ccc(-c3ccc(-c4cnc([C@@H](NC(=O)Cc5cnccn5)C(C)C)[nH]4)cc3)cc2)[nH]1 [Compound S-60] | <10
7 | CC(C)[C@H](NC(=O)c1cncnc1)c1ncc(-c2ccc(-c3ccc(-c4cnc([C@@H](NC(=O)c5cncnc5)C(C)C)[nH]4)cc3)cc2)[nH]1 [Compound S-61] | >10
8 | CC(C)[C@H](NC(=O)CCN1CCOCC1)c1ncc(-c2ccc(-c3ccc(-c4cnc([C@@H](NC(=O)CCN5CCOCC5)C(C)C)[nH]4)cc3)cc2)[nH]1 [Compound S-62] | <10
9 | CC(C)[C@H](NC(=O)c1cc(F)ccc1F)c1ncc(-c2ccc(-c3ccc(-c4cnc([C@@H](NC(=O)c5cc(F)ccc5F)C(C)C)[nH]4)cc3)cc2)[nH]1 [Compound S-63] | >100
10 | CC(C)[C@H](NC(=O)c1c(F)cccc1F)c1ncc(-c2ccc(-c3ccc(-c4cnc([C@@H](NC(=O)c5c(F)cccc5F)C(C)C)[nH]4)cc3)cc2)[nH]1 [Compound S-64] | >100
11 | CC(C)[C@H](NC(=O)c1ccccc1Cl)c1ncc(-c2ccc(-c3ccc(-c4cnc([C@@H](NC(=O)c5ccccc5Cl)C(C)C)[nH]4)cc3)cc2)[nH]1 [Compound S-65] | >100
12 | CC(C)[C@H](NC(=O)c1cccc(Cl)c1Cl)c1ncc(-c2ccc(-c3ccc(-c4cnc([C@@H](NC(=O)c5cccc(Cl)c5Cl)C(C)C)[nH]4)cc3)cc2)[nH]1 [Compound S-66] | >100
13 | CC(C)[C@H](NC(=O)c1cc(Cl)ccc1Cl)c1ncc(-c2ccc(-c3ccc(-c4cnc([C@@H](NC(=O)c5cc(Cl)ccc5Cl)C(C)C)[nH]4)cc3)cc2)[nH]1 [Compound S-67] | >100
14 | COc1ccccc1C(=O)N[C@H](c1ncc(-c2ccc(-c3ccc(-c4cnc([C@@H](NC(=O)c5ccccc5OC)C(C)C)[nH]4)cc3)cc2)[nH]1)C(C)C [Compound S-68] | >100
15 | CC(C)[C@H](NC(=O)c1ccccc1C(F)(F)F)c1ncc(-c2ccc(-c3ccc(-c4cnc([C@@H](NC(=O)c5ccccc5C(F)(F)F)C(C)C)[nH]4)cc3)cc2)[nH]1 [Compound S-69] | >100
16 | Cc1ccccc1C(=O)N[C@H](c1ncc(-c2ccc(-c3ccc(-c4cnc([C@@H](NC(=O)c5ccccc5C)C(C)C)[nH]4)cc3)cc2)[nH]1)C(C)C [Compound S-70] | >100
17 | Cc1ccc(C)c(C(=O)N[C@H](c2ncc(-c3ccc(-c4ccc(-c5cnc([C@@H](NC(=O)c6cc(C)ccc6C)C(C)C)[nH]5)cc4)cc3)[nH]2)C(C)C)c1 [Compound S-71] | >100
18 | CC(C)[C@H](NC(=O)c1cccc(C#N)c1)c1ncc(-c2ccc(-c3ccc(-c4cnc([C@@H](NC(=O)c5cccc(C#N)c5)C(C)C)[nH]4)cc3)cc2)[nH]1 [Compound S-72] | >100
